Results published in publication PMC5461952 (Chemical research in toxicology, 2012).
Entries after “also recorded” stand apart in the source; their conditions may differ. Like-named read-outs stand apart in the source and are kept apart here.

What was measured:
human P450 1A1 [1] = target: T1, human P450 1A1 (Homo sapiens, UniProt P04798); experiment: EROD; type: biochemical; settings: for IC50 P450 1A1: human P450 1A1 supersomes, EROD, 5 μM substrate, 37 °C, Dixon plot
T1 sequence (P04798 1-512): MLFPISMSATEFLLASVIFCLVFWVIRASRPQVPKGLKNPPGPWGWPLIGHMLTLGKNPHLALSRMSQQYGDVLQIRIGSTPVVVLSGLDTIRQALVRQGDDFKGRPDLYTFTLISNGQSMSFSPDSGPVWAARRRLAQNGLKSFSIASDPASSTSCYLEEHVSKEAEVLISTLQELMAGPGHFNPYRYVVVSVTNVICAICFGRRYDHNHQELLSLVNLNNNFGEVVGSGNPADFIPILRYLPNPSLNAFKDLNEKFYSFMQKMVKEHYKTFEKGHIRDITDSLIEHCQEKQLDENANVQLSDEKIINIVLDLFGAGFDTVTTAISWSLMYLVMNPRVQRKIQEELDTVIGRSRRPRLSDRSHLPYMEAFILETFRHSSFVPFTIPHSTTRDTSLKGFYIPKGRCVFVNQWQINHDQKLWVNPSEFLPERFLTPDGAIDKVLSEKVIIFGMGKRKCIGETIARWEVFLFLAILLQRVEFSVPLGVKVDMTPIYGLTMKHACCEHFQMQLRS

human P450 1A2 [2] = target: T2, human P450 1A2 (Homo sapiens, UniProt P05177); experiment: Mechanism-based; type: biochemical
T2 sequence (P05177 1-516): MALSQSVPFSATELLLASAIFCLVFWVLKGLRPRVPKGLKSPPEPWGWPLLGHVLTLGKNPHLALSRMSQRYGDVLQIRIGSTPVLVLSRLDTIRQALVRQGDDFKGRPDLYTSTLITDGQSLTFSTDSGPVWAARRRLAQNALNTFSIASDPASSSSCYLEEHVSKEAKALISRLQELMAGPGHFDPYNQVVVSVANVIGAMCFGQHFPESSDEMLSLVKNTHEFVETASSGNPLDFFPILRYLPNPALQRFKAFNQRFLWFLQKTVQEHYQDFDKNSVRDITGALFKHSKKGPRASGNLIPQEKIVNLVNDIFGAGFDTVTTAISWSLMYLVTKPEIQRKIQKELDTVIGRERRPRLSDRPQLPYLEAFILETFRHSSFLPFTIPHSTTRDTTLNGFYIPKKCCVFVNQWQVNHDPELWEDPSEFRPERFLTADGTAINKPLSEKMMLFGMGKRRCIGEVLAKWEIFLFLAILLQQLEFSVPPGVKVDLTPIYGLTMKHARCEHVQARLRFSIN

rat P4502B1 = target: T3, rat P4502B1 (Rattus norvegicus, UniProt P00176); experiment: PROD
T3 sequence (P00176 1-491): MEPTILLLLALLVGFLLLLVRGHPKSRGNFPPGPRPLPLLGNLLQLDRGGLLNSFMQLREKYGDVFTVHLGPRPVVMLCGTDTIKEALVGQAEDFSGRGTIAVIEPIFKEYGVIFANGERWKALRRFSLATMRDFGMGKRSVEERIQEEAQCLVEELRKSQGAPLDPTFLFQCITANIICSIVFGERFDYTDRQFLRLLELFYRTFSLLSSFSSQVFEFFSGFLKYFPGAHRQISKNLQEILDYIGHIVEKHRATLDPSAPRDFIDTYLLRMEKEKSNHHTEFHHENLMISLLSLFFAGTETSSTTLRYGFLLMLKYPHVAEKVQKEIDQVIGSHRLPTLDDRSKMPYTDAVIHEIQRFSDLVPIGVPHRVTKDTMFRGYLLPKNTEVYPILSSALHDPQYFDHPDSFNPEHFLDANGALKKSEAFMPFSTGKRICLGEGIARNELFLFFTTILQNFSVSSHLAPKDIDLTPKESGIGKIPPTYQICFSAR

CYP1A1 = target: T4, CYP1A1 (Homo sapiens, UniProt P04798); experiment: Mechanism-based; type: biochemical; settings: human, human P450 1A1 supersomes, pH 7.6, probe 7-ethoxyresorufin (EROD)
T4 sequence (P04798 1-512): T1 sequence (P04798 1-512)

human P450 1A1 [3] = target: T1, human P450 1A1; experiment: Mechanism-based; type: biochemical
human P450 2A6 = target: T5, human P450 2A6 (Homo sapiens, UniProt P11509); experiment: Coumarin 7-hydroxylation inhibition assay in supersomes
T5 sequence (P11509 1-494): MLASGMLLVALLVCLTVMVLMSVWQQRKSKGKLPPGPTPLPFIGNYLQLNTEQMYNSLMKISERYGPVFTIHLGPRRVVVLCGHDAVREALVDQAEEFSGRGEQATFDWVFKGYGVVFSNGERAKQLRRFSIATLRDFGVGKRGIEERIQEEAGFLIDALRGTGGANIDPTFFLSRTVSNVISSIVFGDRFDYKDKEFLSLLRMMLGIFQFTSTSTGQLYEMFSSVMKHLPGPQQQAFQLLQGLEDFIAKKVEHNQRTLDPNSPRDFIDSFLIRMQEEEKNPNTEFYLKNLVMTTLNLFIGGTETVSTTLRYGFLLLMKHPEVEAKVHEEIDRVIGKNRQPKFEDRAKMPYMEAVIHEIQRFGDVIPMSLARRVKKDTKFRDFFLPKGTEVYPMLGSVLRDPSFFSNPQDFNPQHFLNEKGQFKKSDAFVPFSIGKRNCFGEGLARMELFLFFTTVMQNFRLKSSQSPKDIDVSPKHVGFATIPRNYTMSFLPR

human P450 1A2 [4] = target: T2, human P450 1A2; experiment: MROD; type: biochemical
[5] = 5 min preincubation in presence and absence of NADPH

IC50 P450 1A1 (human P450 1A1 [1]) | Ki (human P450 1A2 [2]) [µM] | kinact (human P450 1A2 [2]; read-out: Kinactivation, P450 1A2) [s⁻¹] | IC50 (rat P4502B1) [µM] | KI (inactivation) at 6 min (CYP1A1) [µM] | kinact (human P450 1A1 [3]; read-out: Kinactivation (rate constant for maximal inactivation at saturation), P450 1A1) [s⁻¹] | IC50 (human P450 2A6) [µM] | IC50 (human P450 1A1 [1]) [µM] | IC50 (human P450 1A2 [4]) [µM] | IC50 P450 1A2 (human P450 1A2 [4]; human P450 1A2 supersomes, MROD, 5 μM substrate, 37 °C, Dixon plot) | Mechanism-based inhibition of P450 1A2 (result in words) (human P450 1A2 [2]) | Mechanism-based inhibition of P450 1A1 (result in words) (human P450 1A1 [3]) | SMILES | Mechanism-based inhibition of P450 1A2 (result in words) (human P450 1A2 [2]; [5]) | Mechanism-based inhibition of P450 1A1 (result in words) (human P450 1A1 [3]; [5])
submicromolar potency | 0.5 | 0.00133 | > 50 | 5.38 | 0.0262 | > 50 |  |  |  |  |  | Cc1cc(Cl)c2c(c1N)C(=O)c1ccccc1C2=O [Compound 1, 1-Amino-4-chloro-2-methylanthracene-9,10-dione] | act as a mechanism-based inhibitor; also recorded: demonstrated mechanism-based inhibition | act as a mechanism-based inhibitor; also recorded: demonstrated mechanism-based inhibition
 |  |  | 2.15 |  |  | > 50 | 2.09 | 0.53 |  |  |  | Nc1ccc(O)c2c1C(=O)c1ccccc1C2=O [Compound 2, 1-amino-4-hydroxyanthracene-9,10-dione] | did not show mechanism-based inhibition; also recorded: does not demonstrate mechanism-based inhibition | did not show mechanism-based inhibition; also recorded: does not demonstrate mechanism-based inhibition
did not inhibit |  |  | 5.66 |  |  | > 50 | > 50 | > 50 | did not inhibit |  |  | CC(C)(C)C1=CC(=O)c2c(ccc(C(C)(C)C)c2O)C1=O [Compound 8, 2,6-Di-tert-butyl-5-hydroxynaphthalene-1,4-dione] |  | 
 |  |  | 14.9 |  |  | > 50 |  |  |  | did not cause mechanism-based inhibition | did not cause mechanism-based inhibition | Cc1cc(O)c2c(c1)C(=O)c1cc(O)cc(O)c1C2=O [emodin, Emodin, reference compound] |  | 
